# What was measured:
# A2780 cell line = test: MTT cytotoxicity assay; format: cell-based; conditions: for IC50: cisplatin sensitive parent line; for IC50 A2780: 120 h treatment
# Experimental: (§4) To evaluate the efficacy of the various drugs, cells were seeded in a sterile, 24-well plate and incubated in the presence of the drug for 72 h/120 h at 37° C., 5% CO2. The number of cells alive was quantified using (3-(4,5-dimethylthiazol-2-yl)-2,5 diphenyltetrazolium bromide) (MTT) assay. The cells were incubated for 2 h with MTT, DMSO was added to dissolve the crystals and the plates were measured at 540 nm. Viability (%) graphs were constructed relative to the control of every assay. The data were plotted in a graph, lines connected the points, and the values were determined from the interpolated graph.
# A2780-cisR cell line = test: MTT cytotoxicity assay; format: cell-based; conditions: for IC50: cisplatin resistant line; for RF, resistance factor: ratio of IC50 in A2780-cisR to A2780; for IC50 A2780-cisR: 120 h treatment
# Experimental: as §4
# A549 cell line = test: MTT cytotoxicity assay; format: cell-based; conditions: 120 h treatment
# Experimental: A549, BxPC-3 and OVCAR-8 cells were grown in RPMI medium supplemented with 10% fetal bovine serum (Gibco), 1% L-glutamine, 100 U/ml penicillin, 100 ug/ml streptomycin and 0.13% w/w gentamycin. […] The cell lines were maintained at 37° C. under 5% CO2. All cell culture products were obtained from Biological Industries (Beit HaEmek, Israel). The drugs were dissolved in DMSO and were added to the appropriate medium. Drug concentrations were chosen in a range that would never expose cells to more than 0.5% DMSO i.e. for 50 μg/ml maximal concentration; 0.5 mg of OXA-PAL-ACT was dissolved in 50 μl DMSO and then added to 10 ml cell medium.
# as §4
# HCT-15 cell line = test: MTT cytotoxicity assay; format: cell-based; conditions: 120 h treatment
# Experimental: as §4
# A498 cell line = test: MTT cytotoxicity assay; format: cell-based; conditions: 120 h treatment
# Experimental: as §4
# A375 cell line = test: MTT cytotoxicity assay; format: cell-based; conditions: 120 h treatment
# Experimental: as §4
# CT-26-luc cell line = test: MTT antiproliferative assay; format: cell-based, murine; conditions: 120 h incubation
# [1] = Reduction potentials by cyclic voltammetry; format: physicochemical; conditions: versus Ag/AgCl
# PC-3 cell line = test: MTT cytotoxicity assay; conditions: for IC50 PC-3: 120 h treatment; for IC50: read-out: IC50 PC-3, 120 h incubation
# Experimental: (§5) The in vitro experiments were performed in cell lines of lung cancer (A549), prostate cancer (DU145 and PC-3), pancreatic cancer (BxPC-3) and ovarian cancer (SKOV-3 and OVCAR-8). A549, BxPC-3 and OVCAR-8 cells were grown in RPMI medium supplemented with 10% fetal bovine serum (Gibco), 1% L-glutamine, 100 U/ml penicillin, 100 ug/ml streptomycin and 0.13% w/w gentamycin. PC-3 cells were cultured in DMEM plus 10% fetal bovine serum, 1% L-glutamine, 100 U/ml penicillin, 100 μg/ml streptomycin and 1% pyrovate. DU145 cells were grown in RPMI1640 medium supplemented with 10% fetal bovine serum, 100 U/ml penicillin, and 100 ug/ml streptomycin. SKOV-3 cells were cultured McCoy's 5A medium supplemented with 10% fetal bovine serum, 100 U/ml penicillin, and 100 ug/ml streptomycin. The cell lines were maintained at 37° C. under 5% CO2. […] The drugs were dissolved in DMSO and were added to the appropriate medium. Drug concentrations were chosen in a range that would never expose cells to more than 0.5% DMSO i.e. for 50 μg/ml maximal concentration; 0.5 mg of OXA-PAL-ACT was dissolved in 50 μl DMSO and then added to 10 ml cell medium.
# as §4
# (§6) The cells were treated continuously for 120 h.
# PC-3 LUC cell line = test: MTT cytotoxicity assay; conditions: for IC50 PC-3 LUC: 120 h treatment; for IC50: read-out: IC50 PC-3-luc, 120 h incubation
# Experimental: as §4, §6
# BxPC-3 cell line = test: MTT cytotoxicity assay; conditions: for IC50 BXPC-3: 120 h treatment; for IC50: read-out: IC50 BxPC-3, 120 h incubation
# Experimental: as §5, §4, §6
# OVCAR-8 cell line = test: MTT cytotoxicity assay; conditions: for IC50 OVCAR-8: 120 h treatment; for IC50: read-out: IC50 OVCAR-8, 120 h incubation
# Experimental: as §5, §4, §6
# SKOV-3 cell line = test: MTT cytotoxicity assay; conditions: for IC50 SKOV-3: 120 h treatment; for IC50: read-out: IC50 SKOV-3, 120 h incubation
# Experimental: as §5, §4, §6
# [2] = Log P determination, shake flask method; conditions: n-octanol and water
# Experimental: The partition coefficient of the new Pt compounds was determined in n-octanol and water by shake flask method.
# BxPc-3-luc2 cell line = test: MTT antiproliferative assay; format: cell-based, human
# Experimental: (§1) The antiproliferative activities of the novel compound (free and incorporated in NPs) and OXA were determined in HCT 116-luc2 (human colorectal cancer) and BxPc-3-luc2 (human pancreatic cancer) cell lines by the MTT assay.
# HCT 116-luc2 cell line = test: MTT antiproliferative assay; format: cell-based, human
# Experimental: as §1
# HaCaT cell line = conditions: non-cancer human keratinocytes
# From the text: (§2) HaCaT cell line monolayer representing human keratinocytes, RASM line monolayer representing Rat Aortic Smooth Muscle cells.
# [3] = tested on: RASM (Rat Aortic Smooth Muscle cells); conditions: non-cancer Rat Aortic Smooth Muscle cells
# From the text: as §2
# [4] = tested on: SKOV-3 and SKOV-3-luc cells; test: Whole-cell Pt accumulation (cellular uptake) by ICP-MS; format: cell-based, human; conditions: 24 h exposure, 5, 15, 25 μg/ml
# Experimental: (§3) Following incubation, the drug-containing medium was removed, and cells were rinsed twice with cold PBS, trypsinized and were centrifuged into a pellet (4400 rpm, 5 min). 500 μl of nitric acid was added to cell pellets, and overnight incubated at 70° C. The samples were prepared by dilution using 0.1% SDS and 1% nitric acid lysis solution, and analyzed for Pt content by ICP-MS. DNA was isolated and purified from cell lines with the DNeasy Blood and Tissue Kit (Qiagen).
# Cellular accumulation of platinum is a key step in cellular platinum drug pharmacology.
# SKOV-3 cells = test: DNA platination by ICP-MS; format: cell-based, human; conditions: 24 h exposure, 25 μg/ml
# Experimental: as §3
# SKOV-3 luc tumor = test: Ovarian carcinoma mouse model, bioluminescent imaging; format: in vivo, SCID mice; conditions: from day 60; 15 mg/kg i.v. once a week, 4 treatments
# Experimental: For induction of an ovarian carcinoma mouse model, 5-6 weeks-old severe combined immunodeficiency (SCID) mice, divided into 4 groups, were injected with 2×10^6 SKOV-3 luc cells directly into intraperitoneal cavity (i.p.). The cells were suspended in 100 μl PBS.
# All treatments were given in an identical treatment regimen.
# BxPc-3-luc2 tumor = test: Pancreatic carcinoma mouse model, bioluminescent imaging; format: in vivo, SCID-bg mice; conditions: i.v. once a week, 4 treatments
# From the text: 5-6 weeks-old SCID mice were inoculated subcutaneously with 2×10^6 BxPC-3-luc cells.
# Pancreatic tumors were induced by subcutaneous injection of the luciferase-transfected pancreas adenocarcinoma cells, BxPc-3-luc2, to SCID-bg mice. Tumor development and progression was validated by bioluminescent imaging. On the eighth day following tumor cells injection, a four-treatment cycle (intravenous route) was initiated (once a week).
# HCT-116-luc2 tumor = test: Colon cancer mouse model, bioluminescent imaging; format: in vivo, SCID-bg mice; conditions: 33 days from inoculation; 9 mg/kg OPA equivalent to 5 mg/kg OXA, i.v. every fourth day
# Experimental: 5-6 weeks-old SCID mice were inoculated subcutaneously with 1×10^6 HCT-116-luc2 cells. 1 day following tumor inoculation, treatment was initiated. Treatment was administered once every fourth day by i.v. injection (tail), 4 treatments in total.
# Results are presented as mean±SEM. […] In fact equivalent doses were […] since 9 mg/kg OPA is equivalent to 5 mg/kg OXA.
# [5] = for body weight variation over time: OXA 5 mg/kg, OXA-PAL-ACT 15 mg/kg i.v. once a week; for maximum tolerated dose: i.v., solution
SMILES,IC50 (A2780 cell line) [nM],IC50 (A2780-cisR cell line) [nM],"RF, resistance factor (A2780-cisR cell line)",IC50 A549 (A549 cell line) [µg/mL],IC50 HCT-15 (HCT-15 cell line) [µg/mL],IC50 A498 (A498 cell line) [µg/mL],IC50 A375 (A375 cell line) [µg/mL],IC50 (CT-26-luc cell line) [nM],"Ep, reduction potential [1] [V]",IC50 PC-3 (PC-3 cell line) [µg/mL],IC50 (PC-3 cell line) [nM],IC50 PC-3 LUC (PC-3 LUC cell line) [µg/mL],IC50 (PC-3 LUC cell line) [nM],IC50 BXPC-3 (BxPC-3 cell line) [µg/mL],IC50 (BxPC-3 cell line) [nM],IC50 OVCAR-8 (OVCAR-8 cell line) [µg/mL],IC50 (OVCAR-8 cell line) [nM],IC50 SKOV-3 (SKOV-3 cell line),IC50 (SKOV-3 cell line) [nM],Measured logP [2],also measured
CCCCCCCCCCCCCCCC(=O)[O][Pt]1([O]C(=O)CCC(=O)O)[O]C(=O)C(=O)[O]1.NC1CCCCC1N [OXA-PAL-SUCC],460 ± 10,1900 ± 200,4.13,0.45,0.35,0.24,0.19,4430 ± 930,−0.60 ± 0.01,0.35 ± 0.01,450 ± 10,0.78 ± 0.88,1010 ± 1130,1.23 ± 1.18,1590 ± 1520,2.83 ± 0.38,3670 ± 490,20.67 ± 15.88 µg/mL,26800 ± 20600,2.07,
"CCCCCCCCCCCCCCCC(=O)[O][Pt]12([O]C(C)=O)([NH]C3CCCCC3[NH]1)[O]C(=O)C(=O)[O]2 (centres unmarked) [OXA-PAL-ACT, oxaliplatin palmitate acetate]",360 ± 10,340 ± 10,0.93,0.34,0.43,0.20,0.16,620 ± 240,−0.54 ± 0.02,0.25 ± 0.01,350 ± 10,0.33 ± 0.08,460 ± 110,0.25 ± 0.01,350 ± 10,0.33 ± 0.03,460 ± 30,0.39 ± 0.02 µg/mL,540 ± 30,2.06,"IC50 A2780 (A2780 cell line): 0.26 µg/mL; IC50 A2780-cisR (A2780-cisR cell line): 0.24 µg/mL; resistance factor (A2780-cisR cell line; calculated from IC50 values of dose-response curves, A2780-cisR vs A2780 (FIG. 10)): 1; IC50 (BxPc-3-luc2 cell line): 310 ± 90 nM; IC50 (HCT 116-luc2 cell line): 370 ± 20 nM; therapeutic ratio in HaCaT (HaCaT cell line): higher than 1.8; therapeutic ratio in RASM [3]: > 2; cellular accumulation of platinum [4]: substantially higher compared to that of oxaliplatin; nucleus DNA platination (SKOV-3 cells): higher DNA-platination; tumor growth (bioluminescence) efficacy (SKOV-3 luc tumor): more efficient that OXA; pancreatic tumor growth inhibition (BxPc-3-luc2 tumor): significantly more efficient in pancreatic tumor growth inhibition compared to OXA and the control; tumor growth inhibition (HCT-116-luc2 tumor): no significant efficacy difference; body weight variation over time [5]: did not reduce the animal weight; maximum tolerated dose [5]: 15 mg/kg; observed Log P ([2]; n=5): 2.76±0.14"
"N.N.[Cl][Pt][Cl] [Cisplatin, cisplatin, reference compound]",940 ± 40,14600 ± 1440,15.53,8.35,11.32,17.53,3.75 ± 1.77,,,,,,,,,,,,,,
"CCCCCCCCCCCCCCCC(=O)[O][Pt]1([O]C(=O)CCCCCCCCCCCCCCC)[O]C(=O)C(=O)[O]1.NC1CCCCC1N [OXADP, oxaliplatin dipalmitate]",7500 ± 500,> 55000,>7.3,,,,,> 55000,−0.53 ± 0.02,2.20 ± 1.21,2420 ± 1330,21.35 ± 19.30,23500 ± 21200,24.07 ± 12.96,26500 ± 14300,16 ± 3.12,17600 ± 3430,N.D* (N.D—Not Determined (The IC50 value is higher than maximal tested concentration-50 μg/ml)),> 55000,3.49,
"O=C1[O][Pt]2([NH][C@@H]3CCCC[C@H]3[NH]2)[O]C1=O [Oxaliplatin, reference compound]",780 ± 20,4100 ± 250,,,,,,5600 ± 600,,3.63 ± 0.15,9160 ± 370,11 ± 3.60,27700 ± 9050,1.35 ± 0.35,3380 ± 870,3.75 ± 1.77,9440 ± 4440,32.5 ± 3.54 µg/mL,58300 ± 6340,,IC50 A2780 (A2780 cell line): 0.31 µg/mL; IC50 A2780-cisR (A2780-cisR cell line): 1.63 ± 0.11 µg/mL; IC50 (BxPc-3-luc2 cell line): 62700 ± 2520 nM; IC50 (HCT 116-luc2 cell line): 2300 ± 1080 nM; pancreatic tumor growth inhibition (BxPc-3-luc2 tumor): did not show any efficacy; body weight variation over time [5]: marked weight reduction; maximum tolerated dose [5]: 5 mg/kg
